The results in this text go back to patent US20250065017A1, “Fractionating Extracellular Matrix to Modulate Bioactivity and the Host Response” (University of Pittsburgh - Of the Commonwealth System of …, priority 2014, published 2025).

The test system of experiment [1] is primary rat bone marrow derived macrophages. Kind of experiment: PGE2 secretion in primary BMDM. In kind it is cell-based. Particulars: UBM hydrogel 0.5 mg/mL 48 hours; inhibitor pre-treatment 1 hour. The procedure:
Rat bone marrow mononuclear cells were matured to macrophages as previously described ([…], Forster O. Differentiation of rat bone marrow cells into macrophages under the influence of mouse L929 cell supernatant. J Leukoc Biol 1987;41(1):83-91). […] The cell pellet was resuspended in red blood cell (RBC) lysis buffer (155 mM NH4Cl, 10 mM KHCO3, 0.9% EDTA in distilled water) and incubated for 15 minutes on ice. Cell debris was removed by centrifugation and the cell pellet was resuspended in macrophage maturation media (DMEM high glucose, 10% heat inactivated FBS, 20% L929 fibroblast conditioned media, 0.5 mM MEM non-essential amino acids, 2 mM L-glutamine, 10 mM Hepes pH 7.4, 1% penicillin/streptomycin, 0.12% 50 mM 2-mercaptoethanol). Cells were seeded at a density of 1 million/mL in 6 well plates and incubated at 37° C./5% CO2. Media was changed every 2-3 days for 7 days. Matured bone marrow derived macrophages (BMDMs) were treated with 1 mL of StemPro® Accutase® (Invitrogen), incubated at 37° C. for 10 minutes, and detached with gentle pipetting. The cell suspension was collected and centrifuged for 5 mins at 1400 rpm. […] Secreted factor concentrations in the culture supernatants were determined using commercially available ELISA kits (PGE2, PGF2α, ENZO Life Sciences) and IL-1RA (R&D Systems)) according to the manufacturer's instructions.

Another experiment has as its system Sprague Dawley rats. In words: Rat skeletal muscle injury model: collagen deposition and myogenesis. In kind it is in vivo. Particulars: UBM implant. The procedure: An established rodent skeletal muscle injury model was used to evaluate the effect of the COX1/2 inhibitor, Aspirin, on the ECM scaffold mediated constructive remodeling response. Briefly, three days prior to the surgical procedure, animals were randomly assigned to either the Aspirin treated (3 mg/mL Aspirin in drinking water) or control (vehicle) group. Bilateral 1.5 cm×1.5 cm partial thickness defects were created in the abdominal musculature. A size-matched pre-cast UBM hydrogel and an overlying 2×2 cm single layer sheet of UBM was then placed in the muscle defect area. The remodeling response was evaluated following 3, 7, 14, and 35 days by quantitative histomorphologic metrics (Wolf M T, Carruthers […], Crapo P M, Huber A, Burnsed O A, Londono R, Johnson […] and others. Polypropylene surgical mesh coated with extracellular matrix mitigates the host foreign body response. J Biomed Mater Res A 2013 and Wolf […], Brennan-Pierce E P, Johnson S A, Carruthers […] hydrogel derived from decellularized dermal extracellular matrix. Biomaterials 2012;33(29):7028-38), including characterization of macrophage phenotype and neo tissue deposition. Thirty-two female Sprague Dawley rats (350-400 g at implantation) were purchased from Harlan Laboratories. […] Salicylates in whole blood were determined using the Salicylates Detection Kit from Neogen according to the manufacturer's instructions. […] Fast and Slow Myosin Heavy Chain: Myosin heavy chain positive cells in the defect area were determined by immunolabeling for fast and slow myosin heavy chain as previously described (Turner N J, Yates A J, Jr., Weber […], Stolz D B, Gilbert […]. Xenogeneic extracellular matrix as an inductive scaffold for regeneration of a functioning musculotendinous junction. Tissue Eng Part A 2010;16(11):3309-17; Valentin J E, Turner N J, Gilbert […]. Functional skeletal muscle formation with a biologic scaffold. Biomaterials 2010;31(29):7475-84; and Wolf […]. Biologic scaffold composed of skeletal muscle extracellular matrix. […]

Take `CC(=O)Oc1ccccc1C(=O)O` [Aspirin]: in experiment [1], the PGE2 production entry is on record as “reduced PGE2 production to baseline levels”. In addition, the “reduction in collagen deposition” value in the experiment with Sprague Dawley rats (35 day time point, 3 mg/mL Aspirin in drinking water) turned out to be 24%. Besides, the “reduction in myogenesis (myogenic index) compared to non-treated controls” value in the experiment with Sprague Dawley rats (35 days post implantation) was 4 fold. In addition, the “in vivo reduction in myogenesis” value with Sprague Dawley rats was found to be 79%.
